Seven compounds from ChEMBL document CHEMBL1134245, “Two novel and potent 3-[(o-methoxyphenyl)piperazinylethyl]-5-phenylthien” (Bioorg Med Chem Lett, 2001) can be followed below.

Assay [1] deals with T1, Alpha-1A adrenergic receptor (Rattus norvegicus, UniProt P43140).
T1 sequence (P43140 whole entry): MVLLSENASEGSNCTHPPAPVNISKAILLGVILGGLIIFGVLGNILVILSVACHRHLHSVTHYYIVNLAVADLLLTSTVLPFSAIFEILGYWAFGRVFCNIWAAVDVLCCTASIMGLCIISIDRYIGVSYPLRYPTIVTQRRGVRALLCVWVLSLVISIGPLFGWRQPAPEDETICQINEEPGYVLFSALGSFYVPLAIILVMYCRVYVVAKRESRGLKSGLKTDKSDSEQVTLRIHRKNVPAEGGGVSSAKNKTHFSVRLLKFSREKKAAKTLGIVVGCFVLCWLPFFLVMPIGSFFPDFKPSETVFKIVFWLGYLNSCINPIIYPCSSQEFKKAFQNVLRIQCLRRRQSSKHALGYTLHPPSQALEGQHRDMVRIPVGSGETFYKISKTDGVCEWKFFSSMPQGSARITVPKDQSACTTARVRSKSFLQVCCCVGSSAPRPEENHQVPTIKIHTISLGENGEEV
In words: Binding affinity towards rat Alpha-1A adrenergic receptor.

The target of assay [2] is T2, Alpha-1B adrenergic receptor (Homo sapiens, UniProt P35368).
T2 sequence (P35368 whole entry): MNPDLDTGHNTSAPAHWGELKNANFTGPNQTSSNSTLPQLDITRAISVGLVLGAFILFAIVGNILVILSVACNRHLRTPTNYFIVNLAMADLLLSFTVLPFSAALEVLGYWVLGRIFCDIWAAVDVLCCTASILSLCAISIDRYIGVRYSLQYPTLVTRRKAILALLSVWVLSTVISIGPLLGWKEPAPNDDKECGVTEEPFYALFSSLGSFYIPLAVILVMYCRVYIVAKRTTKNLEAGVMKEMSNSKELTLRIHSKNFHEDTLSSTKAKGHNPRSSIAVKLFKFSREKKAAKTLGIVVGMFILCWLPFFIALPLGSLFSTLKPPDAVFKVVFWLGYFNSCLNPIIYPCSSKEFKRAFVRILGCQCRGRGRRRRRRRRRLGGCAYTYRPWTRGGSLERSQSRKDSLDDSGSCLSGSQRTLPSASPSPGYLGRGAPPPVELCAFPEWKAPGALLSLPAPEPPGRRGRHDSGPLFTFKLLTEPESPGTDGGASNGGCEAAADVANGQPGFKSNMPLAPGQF
As to the kind of experiment: Binding affinity towards human Alpha-1B adrenergic receptor.

In assay [3] the target is T3, Alpha-1D adrenergic receptor (Homo sapiens, UniProt P25100).
T3 sequence (P25100 whole entry): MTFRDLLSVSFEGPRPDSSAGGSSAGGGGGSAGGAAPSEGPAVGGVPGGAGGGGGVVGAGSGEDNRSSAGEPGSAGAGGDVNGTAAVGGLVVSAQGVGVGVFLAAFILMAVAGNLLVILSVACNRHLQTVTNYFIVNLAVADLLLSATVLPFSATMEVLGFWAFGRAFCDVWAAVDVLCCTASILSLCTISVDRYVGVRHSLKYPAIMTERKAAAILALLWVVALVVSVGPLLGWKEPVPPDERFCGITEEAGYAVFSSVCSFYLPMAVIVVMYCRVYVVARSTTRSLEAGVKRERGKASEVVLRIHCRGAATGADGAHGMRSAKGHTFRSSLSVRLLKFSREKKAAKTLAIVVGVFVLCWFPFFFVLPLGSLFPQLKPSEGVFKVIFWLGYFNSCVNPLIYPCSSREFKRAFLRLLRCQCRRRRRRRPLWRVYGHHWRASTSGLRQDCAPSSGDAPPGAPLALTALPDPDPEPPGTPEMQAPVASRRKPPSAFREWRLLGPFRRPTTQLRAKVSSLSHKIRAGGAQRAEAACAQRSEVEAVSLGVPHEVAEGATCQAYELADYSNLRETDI
In words: Binding affinity towards human Alpha-1D adrenergic receptor.

The target of assay [4] is T4, Alpha-1A adrenergic receptor (Homo sapiens, UniProt P35348).
T4 sequence (P35348 whole entry): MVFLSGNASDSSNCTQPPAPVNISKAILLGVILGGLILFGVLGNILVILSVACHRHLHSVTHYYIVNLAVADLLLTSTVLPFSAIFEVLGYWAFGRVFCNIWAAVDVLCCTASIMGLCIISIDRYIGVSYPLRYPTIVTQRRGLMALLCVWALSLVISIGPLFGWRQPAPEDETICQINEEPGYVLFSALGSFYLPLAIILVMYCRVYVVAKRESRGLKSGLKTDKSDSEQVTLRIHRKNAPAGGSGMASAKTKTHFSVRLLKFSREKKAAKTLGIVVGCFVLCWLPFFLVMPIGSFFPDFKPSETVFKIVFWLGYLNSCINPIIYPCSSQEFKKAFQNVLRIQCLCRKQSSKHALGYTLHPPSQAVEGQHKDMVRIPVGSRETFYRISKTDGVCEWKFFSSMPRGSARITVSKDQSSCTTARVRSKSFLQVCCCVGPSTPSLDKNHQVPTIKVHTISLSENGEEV
In words: Binding affinity for human Alpha-1A adrenergic receptor.

In assay [5] the target is T5, Alpha-1A adrenergic receptor (Bos taurus, UniProt P18130).
T5 sequence (P18130 whole entry): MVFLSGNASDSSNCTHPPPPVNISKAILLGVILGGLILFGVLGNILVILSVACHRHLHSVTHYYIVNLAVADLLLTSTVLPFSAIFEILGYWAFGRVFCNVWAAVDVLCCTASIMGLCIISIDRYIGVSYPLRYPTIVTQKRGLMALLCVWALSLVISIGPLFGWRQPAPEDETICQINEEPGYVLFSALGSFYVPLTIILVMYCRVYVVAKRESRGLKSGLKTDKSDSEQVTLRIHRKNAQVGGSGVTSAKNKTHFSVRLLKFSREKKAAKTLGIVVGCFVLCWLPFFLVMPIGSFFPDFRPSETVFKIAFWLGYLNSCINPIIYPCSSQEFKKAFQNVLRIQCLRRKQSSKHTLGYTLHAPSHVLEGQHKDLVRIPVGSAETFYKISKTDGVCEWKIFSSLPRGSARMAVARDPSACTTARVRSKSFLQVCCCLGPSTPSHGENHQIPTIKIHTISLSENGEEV
In words: Binding affinity towards bovine Alpha-1A adrenergic receptor.

Assay [6] has as its target T6, Alpha-1D adrenergic receptor (Rattus norvegicus, UniProt P23944).
T6 sequence (P23944 whole entry): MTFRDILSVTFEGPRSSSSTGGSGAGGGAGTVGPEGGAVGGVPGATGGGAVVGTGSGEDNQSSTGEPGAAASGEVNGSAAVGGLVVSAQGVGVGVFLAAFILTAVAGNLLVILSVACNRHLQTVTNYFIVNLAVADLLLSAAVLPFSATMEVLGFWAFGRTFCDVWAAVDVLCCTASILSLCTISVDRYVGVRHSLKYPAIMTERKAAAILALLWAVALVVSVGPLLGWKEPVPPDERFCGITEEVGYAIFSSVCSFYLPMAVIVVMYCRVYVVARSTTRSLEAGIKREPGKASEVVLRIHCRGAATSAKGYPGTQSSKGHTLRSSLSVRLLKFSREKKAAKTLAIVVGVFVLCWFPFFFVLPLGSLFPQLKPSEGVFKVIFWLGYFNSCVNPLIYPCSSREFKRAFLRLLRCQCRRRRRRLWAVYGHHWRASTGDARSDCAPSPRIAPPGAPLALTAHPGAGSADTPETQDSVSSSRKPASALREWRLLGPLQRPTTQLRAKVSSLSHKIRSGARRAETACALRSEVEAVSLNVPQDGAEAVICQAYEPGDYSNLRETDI
As to the kind of experiment: Binding affinity towards rat Alpha-1D adrenergic receptor.

Assay [7] concerns the target T7, Alpha-1B adrenergic receptor (Rattus norvegicus, UniProt P15823).
T7 sequence (P15823 whole entry): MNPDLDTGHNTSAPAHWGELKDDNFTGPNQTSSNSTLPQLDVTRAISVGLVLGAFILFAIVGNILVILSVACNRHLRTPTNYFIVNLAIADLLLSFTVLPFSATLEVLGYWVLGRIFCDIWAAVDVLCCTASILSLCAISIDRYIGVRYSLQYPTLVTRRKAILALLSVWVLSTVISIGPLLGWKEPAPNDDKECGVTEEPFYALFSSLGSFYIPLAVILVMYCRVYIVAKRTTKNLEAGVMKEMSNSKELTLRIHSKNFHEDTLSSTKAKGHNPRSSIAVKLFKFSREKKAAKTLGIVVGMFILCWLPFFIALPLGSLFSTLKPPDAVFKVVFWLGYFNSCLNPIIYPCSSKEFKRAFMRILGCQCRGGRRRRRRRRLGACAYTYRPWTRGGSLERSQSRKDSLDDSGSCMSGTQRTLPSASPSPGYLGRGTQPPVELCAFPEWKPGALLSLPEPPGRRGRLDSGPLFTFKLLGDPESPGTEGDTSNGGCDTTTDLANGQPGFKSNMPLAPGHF
As to the kind of experiment: In vitro functional activity at Alpha-1B adrenergic receptor in rat spleen. As to conditions: read-out: pA2 (converted). In kind it is tissue-based.

Take `COc1ccccc1N1CCN(CCn2c(=O)[nH]c3sccc3c2=O)CC1`: the Ki in assay [1] was found to be 0.523 nM; in assay [2], 1.22 nM; in assay [3] it was 0.308 nM; in assay [4] it was 0.344 nM; in assay [5], 0.181 nM; in assay [6], 0.229 nM.

Take `COc1ccccc1N1CCN(CCn2c(=O)[nH]c3sc(C)c(-c4ccccc4)c3c2=O)CC1`: the Ki in assay [1] amounted to 1.97 nM; in assay [2], 3.7 nM; in assay [3] it was 0.466 nM; in assay [4], 2.63 nM; in assay [5], 0.377 nM; in assay [6] it was 0.251 nM.

As to `COc1ccccc1N1CCN(CCn2c(=O)[nH]c3sc(-c4ccccc4)cc3c2=O)CC1`, the Ki in assay [1] stood at 0.578 nM; in assay [2], 1.86 nM; in assay [4] it was 0.868 nM; in assay [5] it was 0.248 nM; in assay [6], 0.361 nM.

On to `COc1ccccc1N1CCN(CCCn2c(=O)[nH]c3scc(-c4ccccc4)c3c2=O)CC1`, for which the Ki in assay [1] was determined as 9.58 nM; in assay [2], 15.8 nM; in assay [3], 7.15 nM; in assay [4] it was 8.49 nM; in assay [5] it was 1.25 nM; in assay [6], 8.2 nM.

With `COc1ccccc1N1CCN(CCn2c(=O)c3c(-c4ccccc4)csc3n(C)c2=O)CC1`, the Ki is 2.62 nM in assay [1], 3.1 nM in assay [4], 0.436 nM in assay [5] and 0.71 nM in assay [6].

Turning to `CC(CN1CCN(c2cc(F)c(F)cc2F)CC1)N1C(=O)CC2(CCCC2)CC1=O` (single isomer, unassigned), the Ki in assay [3] was 1.3 nM; in assay [4], 14900 nM.

For `COc1ccccc1N1CCN(CCN2C(=O)CC3(CCCC3)CC2=O)CC1` [BMY-7378], the Ki in assay [2] stood at 94.3 nM; in assay [5] it was 43 nM. Besides, the Kb in assay [7] was 42.7 nM.

A word on the Ki: it is the dissociation constant of the complex between target and ligand, obtained from inhibition or displacement.
